The target of assay [1] is Human mTOR (FLAG-TOR) (Homo sapiens, UniProt P42345). Kind of assay: mTOR kinase assay (DELFIA format, purified enzyme). The class given is biochemical. Conditions: read-out: IC50 mTOR.
The subject of assay [2] is human breast MDA-MB-361 tumor cell line. Kind of assay: In vitro cell culture growth assay (MTS), MDA-MB-361. Conditions: Homo sapiens, MDA-MB-361, 72 h, MTS cell growth assay, three days after drug treatment, read-out: IC50 MDA-MB-361. The class given is cell-based.
For assay [3], the system named is human prostate PC3-mm2 tumor cell line. Kind of assay: In vitro cell culture growth assay (MTS), PC3-mm2. The class given is cell-based. To be noted: Homo sapiens, PC3MM2, 72 h, MTS cell growth assay, three days after drug treatment, read-out: IC50 PC3-mm2. For orientation: Tetrazolium dyes change colour on reduction, which living cells bring about.
For assay [4], the target named is PI3K-α (Homo sapiens, UniProt P42336). Kind of assay: PI3K-alpha fluorescence polarization assay. To be noted: read-out: IC50 PI3Kα. A general note: Polarisation of emitted light reports the rotation of a fluorescent probe.
PI3K-α, sequence (P42336 whole entry, species assumed): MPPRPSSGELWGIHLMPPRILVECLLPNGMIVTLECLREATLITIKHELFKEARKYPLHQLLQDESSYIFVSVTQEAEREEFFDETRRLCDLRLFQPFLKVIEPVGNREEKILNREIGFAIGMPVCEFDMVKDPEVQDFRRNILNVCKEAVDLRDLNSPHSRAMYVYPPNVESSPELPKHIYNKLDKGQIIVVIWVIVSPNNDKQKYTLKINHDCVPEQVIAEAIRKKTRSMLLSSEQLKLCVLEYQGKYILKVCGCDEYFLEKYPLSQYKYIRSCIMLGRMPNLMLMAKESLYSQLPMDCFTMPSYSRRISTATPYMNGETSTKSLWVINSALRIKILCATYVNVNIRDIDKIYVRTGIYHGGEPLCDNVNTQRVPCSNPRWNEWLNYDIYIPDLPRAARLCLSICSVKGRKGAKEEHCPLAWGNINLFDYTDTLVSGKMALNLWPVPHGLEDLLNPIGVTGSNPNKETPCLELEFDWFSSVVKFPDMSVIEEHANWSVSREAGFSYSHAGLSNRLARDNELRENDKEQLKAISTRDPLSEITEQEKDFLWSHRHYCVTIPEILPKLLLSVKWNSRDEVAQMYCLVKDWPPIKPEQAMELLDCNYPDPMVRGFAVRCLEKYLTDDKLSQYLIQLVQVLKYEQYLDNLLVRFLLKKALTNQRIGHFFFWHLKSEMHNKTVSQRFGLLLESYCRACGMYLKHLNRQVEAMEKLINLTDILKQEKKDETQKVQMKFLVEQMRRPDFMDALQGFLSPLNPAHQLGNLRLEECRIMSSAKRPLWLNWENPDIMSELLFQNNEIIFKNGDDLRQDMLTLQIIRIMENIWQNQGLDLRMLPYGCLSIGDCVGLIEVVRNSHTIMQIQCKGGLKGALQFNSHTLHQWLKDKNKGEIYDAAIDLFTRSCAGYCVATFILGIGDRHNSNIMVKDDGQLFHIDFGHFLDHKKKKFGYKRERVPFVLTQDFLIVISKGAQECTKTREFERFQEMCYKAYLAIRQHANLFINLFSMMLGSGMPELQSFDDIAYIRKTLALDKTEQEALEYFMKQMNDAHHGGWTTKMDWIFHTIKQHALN
PI3K-α, sequence (P27986 whole entry partner, species assumed): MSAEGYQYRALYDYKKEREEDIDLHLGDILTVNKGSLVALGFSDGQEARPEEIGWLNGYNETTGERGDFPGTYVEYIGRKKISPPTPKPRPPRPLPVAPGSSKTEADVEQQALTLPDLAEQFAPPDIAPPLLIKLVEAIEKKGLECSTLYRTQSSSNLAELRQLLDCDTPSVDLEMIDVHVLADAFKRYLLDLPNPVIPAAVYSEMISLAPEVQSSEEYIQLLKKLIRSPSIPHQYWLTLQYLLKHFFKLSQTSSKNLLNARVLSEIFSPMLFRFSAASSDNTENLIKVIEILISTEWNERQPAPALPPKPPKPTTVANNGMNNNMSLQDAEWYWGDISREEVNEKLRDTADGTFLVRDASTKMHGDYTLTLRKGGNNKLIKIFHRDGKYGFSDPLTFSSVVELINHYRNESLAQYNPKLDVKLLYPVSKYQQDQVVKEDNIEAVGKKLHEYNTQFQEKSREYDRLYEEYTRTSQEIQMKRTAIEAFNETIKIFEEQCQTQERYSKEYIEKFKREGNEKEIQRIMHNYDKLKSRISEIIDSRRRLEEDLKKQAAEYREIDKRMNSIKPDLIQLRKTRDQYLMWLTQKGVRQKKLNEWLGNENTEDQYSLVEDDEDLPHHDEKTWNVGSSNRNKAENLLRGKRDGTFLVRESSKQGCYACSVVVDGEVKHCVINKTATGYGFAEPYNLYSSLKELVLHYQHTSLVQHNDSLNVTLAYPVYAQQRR
Assay [5] concerns the target PI3K-γ (Homo sapiens, UniProt P48736). Nature of the assay: PI3K-gamma fluorescence polarization assay. Conditions: read-out: IC50 PI3Kγ.

Each structure is given as a SMILES string. Several values for one entry are separate records, joined by “and”; a condition that tells them apart may be missing. Equal entries are not always repeated. Where two headings read alike, the source gives them in different places.

PI3K-γ, sequence (P48736 whole entry, species assumed): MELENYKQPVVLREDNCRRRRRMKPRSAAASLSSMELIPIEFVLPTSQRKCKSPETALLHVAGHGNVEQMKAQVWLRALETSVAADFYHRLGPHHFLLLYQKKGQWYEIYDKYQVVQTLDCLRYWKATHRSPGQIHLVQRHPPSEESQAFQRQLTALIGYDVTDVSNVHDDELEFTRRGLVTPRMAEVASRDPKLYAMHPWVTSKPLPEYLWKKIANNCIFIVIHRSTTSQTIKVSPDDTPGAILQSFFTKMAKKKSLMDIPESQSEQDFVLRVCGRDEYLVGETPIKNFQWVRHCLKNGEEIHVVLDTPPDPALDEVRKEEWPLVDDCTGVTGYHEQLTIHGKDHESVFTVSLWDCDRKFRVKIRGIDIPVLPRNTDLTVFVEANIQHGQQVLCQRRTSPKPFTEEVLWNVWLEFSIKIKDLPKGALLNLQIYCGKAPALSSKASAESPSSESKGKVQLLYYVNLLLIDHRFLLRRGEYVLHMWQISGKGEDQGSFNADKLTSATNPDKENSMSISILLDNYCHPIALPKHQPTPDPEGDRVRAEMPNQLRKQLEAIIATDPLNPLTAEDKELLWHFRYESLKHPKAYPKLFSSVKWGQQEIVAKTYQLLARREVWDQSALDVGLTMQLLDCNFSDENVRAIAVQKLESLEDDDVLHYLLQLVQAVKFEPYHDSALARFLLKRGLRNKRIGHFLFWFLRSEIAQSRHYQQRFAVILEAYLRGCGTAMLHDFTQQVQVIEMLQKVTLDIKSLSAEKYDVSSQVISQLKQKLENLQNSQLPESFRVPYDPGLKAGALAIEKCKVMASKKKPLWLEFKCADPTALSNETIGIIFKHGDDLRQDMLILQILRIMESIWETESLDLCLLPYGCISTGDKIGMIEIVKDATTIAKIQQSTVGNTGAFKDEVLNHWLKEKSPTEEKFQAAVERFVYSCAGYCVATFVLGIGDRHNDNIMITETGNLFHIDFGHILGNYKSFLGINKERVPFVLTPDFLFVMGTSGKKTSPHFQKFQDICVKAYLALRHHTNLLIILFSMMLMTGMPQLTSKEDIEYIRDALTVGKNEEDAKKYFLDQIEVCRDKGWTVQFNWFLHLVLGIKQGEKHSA
Human mTOR (FLAG-TOR), sequence (P42345 1360-2549 limits assumed): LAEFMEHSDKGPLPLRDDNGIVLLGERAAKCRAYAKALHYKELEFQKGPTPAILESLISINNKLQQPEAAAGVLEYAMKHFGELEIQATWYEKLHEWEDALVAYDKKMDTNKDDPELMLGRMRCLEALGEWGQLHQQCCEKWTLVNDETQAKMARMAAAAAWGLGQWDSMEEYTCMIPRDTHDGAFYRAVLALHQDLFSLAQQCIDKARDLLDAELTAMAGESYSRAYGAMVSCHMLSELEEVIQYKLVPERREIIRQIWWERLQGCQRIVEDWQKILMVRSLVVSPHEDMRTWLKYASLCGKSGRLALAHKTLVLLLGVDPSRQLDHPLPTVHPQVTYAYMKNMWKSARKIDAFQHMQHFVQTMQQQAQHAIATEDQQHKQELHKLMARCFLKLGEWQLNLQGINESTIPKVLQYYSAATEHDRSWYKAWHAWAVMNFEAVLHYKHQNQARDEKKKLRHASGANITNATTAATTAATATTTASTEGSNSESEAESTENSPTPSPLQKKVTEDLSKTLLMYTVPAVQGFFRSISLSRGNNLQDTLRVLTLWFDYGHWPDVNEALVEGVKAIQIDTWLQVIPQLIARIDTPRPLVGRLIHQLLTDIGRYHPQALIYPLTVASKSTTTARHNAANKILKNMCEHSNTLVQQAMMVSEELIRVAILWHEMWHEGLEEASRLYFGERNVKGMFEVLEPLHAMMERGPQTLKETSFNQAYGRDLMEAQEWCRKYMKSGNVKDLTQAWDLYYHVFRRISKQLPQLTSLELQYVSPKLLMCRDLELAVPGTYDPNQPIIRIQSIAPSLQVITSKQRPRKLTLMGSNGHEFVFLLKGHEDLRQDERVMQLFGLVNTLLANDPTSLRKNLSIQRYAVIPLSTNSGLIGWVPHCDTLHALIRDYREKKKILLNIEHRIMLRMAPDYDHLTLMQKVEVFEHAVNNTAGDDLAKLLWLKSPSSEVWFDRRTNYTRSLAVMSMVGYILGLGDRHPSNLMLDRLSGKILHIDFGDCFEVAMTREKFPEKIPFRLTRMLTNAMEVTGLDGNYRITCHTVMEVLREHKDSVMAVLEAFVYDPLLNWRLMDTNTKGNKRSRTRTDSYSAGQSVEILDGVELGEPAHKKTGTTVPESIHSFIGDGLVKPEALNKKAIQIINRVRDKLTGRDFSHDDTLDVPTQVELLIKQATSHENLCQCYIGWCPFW

For `CC(C)c1nc(-c2ccc(NC(=O)Nc3ccc(C(=O)O)cc3)cc2)nc(N2CCOCC2)n1` [Example 301, 4-[({4-[4-(1-methylethyl)-6-morpholin-4-yl-1,3,5-triazin-2-yl]phenyl}carbamoyl)amino]benzoic acid], the IC50 in assay [1] stood at 0.8 nM; in assay [2] it was 430 nM; in assay [3], 759 nM; in assay [4] it was 21 nM; in assay [5] it was 58 nM.
For `CC(O)c1ccc(NC(=O)Nc2ccc(-c3nc(N4CCOCC4)nc(N4C[C@H]5C[C@@H]4CN5C(=O)OC(C)(C)C)n3)cc2)cc1` (stereo partly drawn) [Example 302, tert-butyl-(1R,4R)-5-{4-[4-({[4-(1-hydroxyethyl)phenyl]carbamoyl}amino)phenyl]-6-morpholin-4-yl-1,3,5-triazin-2-yl}-2,5-diazabicyclo[2.2.1]heptane-2-carboxylate] the same measures were 36 nM, 299 nM, 539 nM, 35 nM and 263 nM.
For the compound `CC(C)c1nc(-c2ccc(NC(=O)Nc3ccc(C(=O)NCCN(C)C)cc3)cc2)nc(N2CCOCC2)n1` [Example 305, N-[2-(dimethylamino)ethyl]-4-[({4-[4-(1-methylethyl)-6-morpholin-4-yl-1,3,5-triazin-2-yl]phenyl}carbamoyl)amino]benzamide], the IC50 in assay [1] came to 0.6 nM; in assay [2], 4 nM; in assay [3], 46 nM; in assay [4], 1 nM; in assay [5], 18 nM.
The matching figures for `CC(C)c1nc(-c2ccc(NC(=O)Nc3ccc(C(=O)N(C)CCN(C)C)cc3)cc2)nc(N2CCOCC2)n1` [Example 306, N-[2-(dimethylamino)ethyl]-N-methyl-4-[({4-[4-(1-methylethyl)-6-morpholin-4-yl-1,3,5-triazin-2-yl]phenyl}carbamoyl)amino]benzamide]: 2.1 nM, 7 nM, 30 nM, 1 nM and 19 nM.
For `CC(C)c1nc(-c2ccc(NC(=O)Nc3ccc(C(=O)N4CCC(N(C)C)CC4)cc3)cc2)nc(N2CCOCC2)n1` [Example 308, 1-(4-{[4-(dimethylamino)piperidin-1-yl]carbonyl}phenyl)-3-{4-[4-(1-methylethyl)-6-morpholin-4-yl-1,3,5-triazin-2-yl]phenyl}urea] the same measures were 2.9 nM, 4 nM, 53 nM, 3 nM and 14 nM.
The matching figures for `CC(C)c1nc(-c2ccc(NC(=O)Nc3ccc(C(=O)Nc4ccncc4)cc3)cc2)nc(N2CCOCC2)n1` [Example 309, 4-[({4-[4-(1-methylethyl)-6-morpholin-4-yl-1,3,5-triazin-2-yl]phenyl}carbamoyl)amino]-N-pyridin-4-ylbenzamide]: 3.5 nM, 64 nM, 109 nM, 12 nM and 95 nM.
On to `CC(C)c1nc(-c2ccc(NC(=O)Nc3ccc(C(=O)Nc4cccnc4)cc3)cc2)nc(N2CCOCC2)n1` [Example 310, 4-[({4-[4-(1-methylethyl)-6-morpholin-4-yl-1,3,5-triazin-2-yl]phenyl}carbamoyl)amino]-N-pyridin-3-ylbenzamide], for which the half-maximal inhibitory concentration (IC50) in assay [1] amounted to 5.9 nM; in assay [2], 44 nM; in assay [3], 117 nM; in assay [4] it was 14 nM; in assay [5], 82 nM.
For `CC(C)c1nc(-c2ccc(NC(=O)Nc3ccc(C(=O)NC4CCC4)cc3)cc2)nc(N2CCOCC2)n1` [Example 311, N-cyclobutyl-4-[({4-[4-(1-methylethyl)-6-morpholin-4-yl-1,3,5-triazin-2-yl]phenyl}carbamoyl)amino]benzamide] the same measures were 12 nM, 126 nM, 366 nM, 40 nM and 125 nM.
In the case of `CCc1nc(-c2ccc(NC(=O)Nc3ccc(C(=O)N4CCC(c5ccccc5)CC4)cc3)cc2)nc(N2CCOCC2)n1` [Example 320, 1-[4-(4-ethyl-6-morpholin-4-yl-1,3,5-triazin-2-yl)phenyl]-3-{4-[(4-phenylpiperidin-1-yl)carbonyl]phenyl}urea], the IC50 in assay [1] is 12.9 nM; in assay [2] it was 32.3 nM; in assay [3] it was 73.7 nM; in assay [4], 3.3 nM; in assay [5], 25 nM.
Turning to `CCc1nc(-c2ccc(NC(=O)Nc3ccc(C(=O)NCc4ccncc4)cc3)cc2)nc(N2CCOCC2)n1` [Example 321, 4-({[4-(4-ethyl-6-morpholin-4-yl-1,3,5-triazin-2-yl)phenyl]carbamoyl}amino)-N-(pyridin-4-ylmethyl)benzamide], the half-inhibitory concentration (IC50) in assay [1] is 16.5 nM; in assay [2] it was 106 nM; in assay [3], 325 nM; in assay [4], 25 nM; in assay [5], 116 nM.
As for `CC(C)Cc1nc(-c2ccc(NC(=O)Nc3ccc(C(=O)N4CCN(C)CC4)cc3)cc2)nc(N2CCOCC2)n1` [Example 322, 1-{4-[(4-methylpiperazin-1-yl)carbonyl]phenyl}-3-{4-[4-(2-methylpropyl)-6-morpholin-4-yl-1,3,5-triazin-2-yl]phenyl}urea], the IC50 in assay [1] was 6 nM; in assay [2], 13 nM; in assay [3], 86 nM; in assay [4], 2.4 nM; in assay [5] it was 30 nM.
For `CC(C)Cc1nc(-c2ccc(NC(=O)Nc3ccc(C(=O)N(C)CCN(C)C)cc3)cc2)nc(N2CCOCC2)n1` [Example 324, N-[2-(dimethylamino)ethyl]-N-methyl-4-[({4-[4-(2-methylpropyl)-6-morpholin-4-yl-1,3,5-triazin-2-yl]phenyl}carbamoyl)amino]benzamide], the half-maximal inhibitory concentration (IC50) in assay [1] worked out at 5.2 nM; in assay [2], 4 nM; in assay [3] it was 35 nM; in assay [4], 1 nM; in assay [5] it was 22 nM.
Regarding `O=C(Nc1ccc(-c2nc(N3CCOCC3)nc(N3C4CCC3COC4)n2)cc1)Nc1ccnc(-c2cccnc2)c1` [Example 336, 1-(2,3′-bipyridin-4-yl)-3-{4-[4-morpholin-4-yl-6-(3-oxa-8-azabicyclo[3.2.1]oct-8-yl)-1,3,5-triazin-2-yl]phenyl}urea], the IC50 was 3.6 nM and 3.45 nM in assay [1]; 56 nM in assay [2]; 45 nM in assay [3] (PC3-mm2 cells); 45 nM in assay [3]; 40 nM in assay [4]; 44 nM in assay [5].
As to `Cc1ccc(-c2nc(-c3ccc(NC(=O)Nc4ccc(C(=O)N5CCN(C)CC5)cc4)cc3)nc(N3CCOCC3)n2)cc1` [Example 337, 1-{4-[4-(4-methylphenyl)-6-morpholin-4-yl-1,3,5-triazin-2-yl]phenyl}-3-{4-[(4-methylpiperazin-1-yl)carbonyl]phenyl}urea], the 50% inhibitory concentration (IC50) in assay [1] was 70 nM and 70.5 nM; in assay [2] (MDA-MB-361 cells) it was 142 nM; in assay [2], 142 nM; in assay [3] (PC3-mm2 cells) it was 373 nM; in assay [3] it was 373 nM; in assay [4], 7 nM. Besides, the IC50 in assay [5] came out at 98 nM; in assay [5] (listed as 533) it was 98.5 nM.
In the case of `Cc1ccc(-c2nc(-c3ccc(NC(=O)Nc4ccc(C(=O)N(C)CCN(C)C)cc4)cc3)nc(N3CCOCC3)n2)cc1` [Example 338, N-[2-(dimethylamino)ethyl]-N-methyl-4-[({4-[4-(4-methylphenyl)-6-morpholin-4-yl-1,3,5-triazin-2-yl]phenyl}carbamoyl)amino]benzamide], the IC50 in assay [1] was 22 nM and 19 nM; in assay [2] it was 122 nM; in assay [3] (PC3-mm2 cells), 266 nM; in assay [3], 266 nM; in assay [4], 3 nM; in assay [5] it was 77 nM. For the same compound, the IC50 in assay [5] (listed as 532) came out at 76.5 nM.
Turning to `CCc1nc(-c2ccc(NC(=O)Nc3ccc(N4CCC(N(C)C)CC4)cc3)cc2)nc(N2CCOCC2)n1` [Example 341, 1-{4-[4-(dimethylamino)piperidin-1-yl]phenyl}-3-[4-(4-ethyl-6-morpholin-4-yl-1,3,5-triazin-2-yl)phenyl]urea], the IC50 was 12 nM and 15.5 nM in assay [1]; 150 nM in assay [2]; 237 nM in assay [3] (PC3-mm2 cells); 237 nM in assay [3]; 10 nM in assay [4]; 10.5 nM in assay [4] (listed as 529). In addition, the IC50 amounted to 48 nM in assay [5] and 48.5 nM in assay [5] (listed as 529).
Consider `Cc1ccc(-c2nc(-c3ccc(NC(=O)Nc4ccc(C(=O)O)cc4)cc3)nc(N3CCOCC3)n2)cc1` [Example 342, 4-[({4-[4-(4-methylphenyl)-6-morpholin-4-yl-1,3,5-triazin-2-yl]phenyl}carbamoyl)amino]benzoic acid], for which the IC50 in assay [1] was 6.6 nM and 9.3 nM; in assay [2] (MDA-MB-361 cells), 1260 nM; in assay [2], 1260 nM; in assay [3] (PC3-mm2 cells) it was 2430 nM; in assay [3] it was 2430 nM; in assay [4], 20 nM. For the same compound, the figures for the IC50 in assay [4] (listed as 527) and in assay [5] were 20.5 nM and 127 nM, respectively.

Broadly, the IC50 is the midpoint of a concentration-inhibition curve.

The values above are taken from patent publication US20090304692A1, “TRIAZINE COMPOUNDS AS PI3 KINASE AND MTOR INHIBITORS” (Wyeth, priority 2008, published 2009).
